Data as given in US9000044B2, “Substituted naphthylacetic acids” (Hoffmann-La Roche Inc., priority 2012, dated 2015).

target: human CRTH2 (Homo sapiens (Human), UniProt Q9Y5Y4); assay: Calcium Flux Assay Using Fluorometric Imaging Plate Reader (FLIPR); format: cell-based; conditions: CHO-K1 cells with G-alpha 16 and human CRTH2; inhibition of DK-PGD2 ligand-induced Ca2+ flux
Experimental: Calcium Flux Assay Using Fluorometric Imaging Plate Reader (FLIPR)
Cell Culture Conditions: CHO-K1 cells previously transfected with G-alpha 16 were subsequently transfected with the human CRTH2 receptor and the neomycin resistance gene. Following selection in 800 μg/mL G418 (geneticin), individual clones were assayed for their receptor expression based on staining with an anti human CRTH2 IgG, followed by assaying for their response to 13,14-dihydro-15-keto Prostaglandin D2 (DK-PDG2) (ligand) in the Ca^2+ Flux assay. Positive clones were then cloned by limiting dilution cloning. The transfected cells were cultured in Ham's F-12 medium supplemented with 10% fetal bovine serum, 2 mM glutamine, 100 U/mL penicillin/100 μg/mL streptomycin, 200 μg/mL hygromycin B, and 800 μg/mL G418 (geneticin). Cells were harvested with trypsin-EDTA (trypsin-ethylenediaminetetraacetic acid) and counted using ViaCount® reagent (from Guava Technologies, Inc. which contains two DNA-binding dyes that enable the reagent user to distinguish between viable and non-viable cells). The cell suspension volume was adjusted to 2.5×10^5 cells/mL with complete growth media. Aliquots of 50 μL were dispensed into BD Falcon™ 384 well black/clear microplates (from BD Biosciences, a division of Becton, Dickinson and Company) and the microplates were placed in a 37° C. CO2 incubator overnight. The following day, the microplates were used in the assay.
Loading Buffer containing dye (from the FLIPR® Calcium 3 Assay Kit from Molecular Devices, a division of MDS Analytical Technologies and MDS Inc.) was prepared by dissolving the contents of one bottle into 200 mL Hank's Balanced Salt Solution containing 20 mM HEPES (4-(2-hydroxyethyl)-1-piperazineethanesulfonic acid) and 2.5 mM probenecid. Growth media was removed from the cell plates and 25 μL of Hank's Balanced Salt Solution (HBSS) containing 20 mM HEPES, 0.05% BSA and 2.5 mM probenecid was added to each well followed by 25 μL of diluted dye using a Multidrop dispenser. The plates were then incubated for 1 hour at 37° C.
During the incubation, test compound plates were prepared by adding 90 μL of HBSS/20 mM HEPES/0.005% BSA buffer to the 2 μL of serial diluted compounds. To prepare serial diluted compounds, 20 mM stocks of compounds were dissolved in 100% DMSO. The compound dilution plate was set up as follows: well #1 received 5 μL of compound plus 10 μL of DMSO. Wells 2-10 received 10 μL of DMSO. 5 μL was mixed and transferred from well #1 into well #2. 1:3 serial dilutions were continued out 10 steps. 2 μL of diluted compound was transferred into duplicate wells of a 384 well “assay plate” and then 90 μL of buffer was added.
After incubation, both the cell and “assay plate” plates were brought to the fluorometric imaging plate reader (FLIPR®) and 20 μL of the diluted compounds were transferred to the cell plates by the FLIPR®. Plates were then incubated for 1 hour at room temperature. […] During the assay, fluorescence readings were taken simultaneously from all 384 wells of the cell plate every 1.5 seconds. Five readings were taken to establish a stable baseline, then 20 μL of sample was rapidly (30 μL/sec) and simultaneously added to each well of the cell plate. The fluorescence was continuously monitored before, during and after sample addition for a total elapsed time of 100 seconds. Responses (increase in peak fluorescence) in each well following agonist addition were determined. The initial fluorescence reading from each well, prior to ligand stimulation, was used as a zero baseline value for the data from that well. The responses were expressed as % inhibition of the buffer control.

Chain of human CRTH2 (Q9Y5Y4 whole entry): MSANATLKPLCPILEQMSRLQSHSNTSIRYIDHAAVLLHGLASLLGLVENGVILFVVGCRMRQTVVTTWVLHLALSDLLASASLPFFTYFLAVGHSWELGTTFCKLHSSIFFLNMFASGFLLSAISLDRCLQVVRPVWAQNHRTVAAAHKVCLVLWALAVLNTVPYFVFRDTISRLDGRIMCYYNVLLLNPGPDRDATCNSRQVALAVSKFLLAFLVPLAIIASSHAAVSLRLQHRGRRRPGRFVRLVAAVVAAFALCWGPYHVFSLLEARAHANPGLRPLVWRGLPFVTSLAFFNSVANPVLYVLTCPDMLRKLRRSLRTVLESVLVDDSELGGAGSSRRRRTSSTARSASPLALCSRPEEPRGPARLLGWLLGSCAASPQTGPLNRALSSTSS

SMILES	IC50 [nM]
Cc1c(CC(=O)O)cc2ccc(F)cc2c1-c1ccc(S(=O)(=O)c2ccccc2Cl)cc1 [Example 2, {4-[4-(2-Chloro-benzenesulfonyl)-phenyl]-6-fluoro-3-methyl-naphthalen-2-yl}-acetic acid]	0.7
Cc1c(CC(=O)O)cc2ccc(F)cc2c1-c1ccc(S(=O)(=O)c2cccc(Cl)c2)cc1 [Example 3, {4-[4-(3-Chloro-benzenesulfonyl)-phenyl]-6-fluoro-3-methyl-naphthalen-2-yl}-acetic acid]	3.9
Cc1c(CC(=O)O)cc2ccc(F)cc2c1-c1ccc(S(=O)(=O)c2ccc(Cl)cc2)cc1 [Example 4, {4-[4-(4-Chloro-benzenesulfonyl)-phenyl]-6-fluoro-3-methyl-naphthalen-2-yl}-acetic acid]	3.2
Cc1c(CC(=O)O)cc2ccc(F)cc2c1-c1ccc(S(=O)(=O)c2ccccc2C(F)(F)F)cc1 [Example 5, {6-Fluoro-3-methyl-4-[4-(2-trifluoromethyl-benzenesulfonyl)-phenyl]-naphthalen-2-yl}-acetic acid]	1.3
Cc1c(CC(=O)O)cc2ccc(F)cc2c1-c1ccc(S(=O)(=O)c2ccccc2OC(F)(F)F)cc1 [Example 6, {6-Fluoro-3-methyl-4-[4-(2-trifluoromethoxy-benzenesulfonyl)-phenyl]-naphthalen-2-yl}-acetic acid]	1
Cc1c(CC(=O)O)cc2ccc(F)cc2c1-c1ccc(S(=O)(=O)c2ccc(OC(F)(F)F)cc2)cc1 [Example 7, {6-Fluoro-3-methyl-4-[4-(4-trifluoromethoxy-benzenesulfonyl)-phenyl]-naphthalen-2-yl}-acetic acid]	15.8
Cc1c(CC(=O)O)cc2ccc(F)cc2c1-c1ccc(S(=O)(=O)c2ccc(Cl)cc2Cl)cc1 [Example 8, {4-[4-(2,4-Dichloro-benzenesulfonyl)-phenyl]-6-fluoro-3-methyl-naphthalen-2-yl}-acetic acid]	9.1
Cc1c(CC(=O)O)cc2ccc(F)cc2c1-c1ccc(S(=O)(=O)c2cc(Cl)ccc2Cl)cc1 [Example 9, {4-[4-(2,5-Dichloro-benzenesulfonyl)-phenyl]-6-fluoro-3-methyl-naphthalen-2-yl}-acetic acid]	3.7
Cc1c(CC(=O)O)cc2ccc(F)cc2c1-c1ccc(S(=O)(=O)c2ccc(F)cc2F)cc1 [Example 10, {4-[4-(2,4-Difluoro-benzenesulfonyl)-phenyl]-6-fluoro-3-methyl-naphthalen-2-yl}-acetic acid]	1.2
Cc1c(CC(=O)O)cc2ccc(F)cc2c1-c1ccc(S(=O)(=O)c2c(F)cccc2F)cc1 [Example 11, {4-[4-(2,6-Difluoro-benzenesulfonyl)-phenyl]-6-fluoro-3-methyl-naphthalen-2-yl}-acetic acid]	1.2
Cc1c(CC(=O)O)cc2ccc(F)cc2c1-c1ccc(S(=O)(=O)c2cc(C(F)(F)F)cc(C(F)(F)F)c2)cc1 [Example 12, {4-[4-(3,5-Bis-trifluoromethyl-benzenesulfonyl)-phenyl]-6-fluoro-3-methyl-naphthalen-2-yl}-acetic acid]	14
Cc1c(CC(=O)O)cc2ccc(F)cc2c1-c1ccc(S(=O)(=O)c2cc(Cl)cc(Cl)c2)cc1 [Example 13, {4-[4-(3,5-Dichloro-benzenesulfonyl)-phenyl]-6-fluoro-3-methyl-naphthalen-2-yl}-acetic acid]	5.4
Cc1c(CC(=O)O)cc2ccc(F)cc2c1-c1ccc(S(=O)(=O)c2cc(F)cc(F)c2)cc1 [Example 14, {4-[4-(3,5-Difluoro-benzenesulfonyl)-phenyl]-6-fluoro-3-methyl-naphthalen-2-yl}-acetic acid]	1.6
Cc1c(CC(=O)O)cc2ccc(Cl)cc2c1-c1ccc(S(=O)(=O)c2ccccc2Cl)cc1 [Example 15, {6-Chloro-4-[4-(2-chloro-benzenesulfonyl)-phenyl]-3-methyl-naphthalen-2-yl}-acetic acid]	9.2
Cc1c(CC(=O)O)cc2ccc(Cl)cc2c1-c1ccc(S(=O)(=O)c2cccc(Cl)c2)cc1 [Example 16]	8.1
Cc1c(CC(=O)O)cc2ccc(Cl)cc2c1-c1ccc(S(=O)(=O)c2ccc(Cl)cc2)cc1 [Example 17, {6-Chloro-4-[4-(4-chloro-benzenesulfonyl)-phenyl]-3-methyl-naphthalen-2-yl}-acetic acid]	7
Cc1c(CC(=O)O)cc2ccc(Cl)cc2c1-c1ccc(S(=O)(=O)c2ccccc2C(F)(F)F)cc1 [Example 18, {6-Chloro-3-methyl-4-[4-(2-trifluoromethyl-benzenesulfonyl)-phenyl]-naphthalen-2-yl}-acetic acid]	2.3
Cc1c(CC(=O)O)cc2ccc(Cl)cc2c1-c1ccc(S(=O)(=O)c2ccccc2OC(F)(F)F)cc1 [Example 19, {6-Chloro-3-methyl-4-[4-(2-trifluoromethoxy-benzenesulfonyl)-phenyl]-naphthalen-2-yl}-acetic acid]	19.7
Cc1c(CC(=O)O)cc2ccc(Cl)cc2c1-c1ccc(S(=O)(=O)c2ccc(OC(F)(F)F)cc2)cc1 [Example 20, {6-Chloro-3-methyl-4-[4-(4-trifluoromethoxy-benzenesulfonyl)-phenyl]-naphthalen-2-yl}-acetic acid]	12.9
Cc1c(CC(=O)O)cc2ccc(Cl)cc2c1-c1ccc(S(=O)(=O)c2cc(Cl)ccc2Cl)cc1 [Example 22, {6-Chloro-4-[4-(2,5-dichloro-benzenesulfonyl)-phenyl]-3-methyl-naphthalen-2-yl}-acetic acid]	4.4
Cc1c(CC(=O)O)cc2ccc(Cl)cc2c1-c1ccc(S(=O)(=O)c2ccc(F)cc2F)cc1 [Example 23, {6-Chloro-4-[4-(2,4-difluoro-benzenesulfonyl)-phenyl]-3-methyl-naphthalen-2-yl}-acetic acid]	2.3
Cc1c(CC(=O)O)cc2ccc(Cl)cc2c1-c1ccc(S(=O)(=O)c2c(F)cccc2F)cc1 [Example 24, {6-Chloro-4-[4-(2,6-difluoro-benzenesulfonyl)-phenyl]-3-methyl-naphthalen-2-yl}-acetic acid]	312
Cc1c(CC(=O)O)cc2ccc(Cl)cc2c1-c1ccc(S(=O)(=O)c2cc(C(F)(F)F)cc(C(F)(F)F)c2)cc1 [Example 25, {4-[4-(3,5-Bis-trifluoromethyl-benzenesulfonyl)-phenyl]-6-chloro-3-methyl-naphthalen-2-yl}-acetic acid]	44.7
Cc1c(CC(=O)O)cc2ccc(Cl)cc2c1-c1ccc(S(=O)(=O)c2cc(Cl)cc(Cl)c2)cc1 [Example 26, {6-Chloro-4-[4-(3,5-dichloro-benzenesulfonyl)-phenyl]-3-methyl-naphthalen-2-yl}-acetic acid]	22.1
Cc1c(CC(=O)O)cc2ccc(Cl)cc2c1-c1ccc(S(=O)(=O)c2cc(F)cc(F)c2)cc1 [Example 27, {6-Chloro-4-[4-(3,5-difluoro-benzenesulfonyl)-phenyl]-3-methyl-naphthalen-2-yl}-acetic acid]	0.7
Cc1c(CC(=O)O)cc2ccc(Cl)cc2c1-c1ccc(S(=O)(=O)Nc2ccc(F)cc2)cc1 [Example 28, {6-Chloro-4-[4-(4-fluoro-phenylsulfamoyl)-phenyl]-3-methyl-naphthalen-2-yl}-acetic acid]	1.1
Cc1ccc(NS(=O)(=O)c2ccc(-c3c(C)c(CC(=O)O)cc4ccc(Cl)cc34)cc2)cc1 [Example 29, [6-Chloro-3-methyl-4-(4-p-tolylsulfamoyl-phenyl)-naphthalen-2-yl]-acetic acid]	2.7
Cc1c(CC(=O)O)cc2ccc(Cl)cc2c1-c1ccc(S(=O)(=O)Nc2ccc(OC(F)(F)F)cc2)cc1 [Example 30, {6-Chloro-3-methyl-4-[4-(4-trifluoromethoxy-phenylsulfamoyl)-phenyl]-naphthalen-2-yl}-acetic acid]	34.3
